{"source": "patent US20090098050A1", "about": "“CALCIUM BINDING PEPTIDES” (THE REGENTS OF THE UNVERSITY OF CALIFORNIA, priority 2005, published 2009)", "key": {"[1]": {"experiment": "Binding of labeled 6DSS to sagitally sectioned human teeth (CLSM)", "procedure": "(§1) FIG. 1: Binding affinities of DSS and DSS variant peptides for hydroxyapatite and tooth surfaces. A-C. Fluorescein-labeled peptides at concentrations ranging from 0-100 μM were incubated with 0.3 mg of hydroxyapatite nanocrystals (specific surface area=100 m^2/g) for ten minutes, followed by removal of the hydroxyapatite by centrifugation. The amount of peptide in the mixture before and after hydroxyapatite removal was determined by Abs480. Isotherms were plotted and fit to the Langmuir equation to extract values for KA, a constant reflecting the affinity of the peptide for the hydroxyapatite surface. D. Sagitally sectioned human teeth were incubated with 12.5 μM 5(6) carboxyfluorescein-labeled 6DSS peptide for ten minutes, followed by rinsing. Peptide binding to tooth surfaces was visualized by Confocal Laser Scanning Microscopy (CLSM) using blue laser illumination (λA=488 nm) and a FITC emission filter. Left side, light colored region: dentin. Right side, dark colored region: enamel.\nControl samples were prepared without peptide. Samples were rinsed after treatment and imaged by confocal laser scanning microscopy (CLSM) using blue laser illumination (excitation wavelength (λ)=488 nm) and a FITC emission filter."}, "[2]": {"experiment": "Preferential binding to carious lesions in teeth (CLSM)", "set-up": "species or system human", "details": "labeled peptide, settings optimized per sample", "procedure": "FIG. 9: Fluorescence micrographs showing specific binding of DSS peptides and variants to carious lesions in teeth. Adult human teeth were exposed to 12.5 uM 5(6)-carboxyfluorescein-labeled peptide without demineralization, washed extensively, and imaged by CLSM. Microscope and camera settings were optimized separately for each sample. […] White traces on the right side of each panel identify the position of the tooth surface, while arrows indicate the position of the stained lesion.\nSections of human teeth containing obvious carious lesions, which consist of demineralized enamel, were polished and exposed to 5(6)-carboxyfluorescein-labeled DSS peptides and variants using the protocol described in Example 2. The sections were washed extensively and imaged by CLSM using blue laser illumination (λ=488 nm) and a FITC emission filter, with microscope and camera settings adjusted for each sample to optimize the signal detected from each peptide. The images were examined to identify the relative levels of peptide binding in healthy versus carious tissue. […] Given their ability to remineralize at sites of enamel degradation (Example 6), they can also be used to initiate remineralization at sites of enamel degradation such as caries or injury sites without causing inappropriate nucleation on healthy tissue surfaces."}, "[3]": {"experiment": "Tissue specific binding of DSS peptides and variants in human teeth (CLSM)", "details": "12.5 μM labeled peptide; for Tissue binding pattern in healthy tooth section: nondemineralized teeth", "procedure": "FIG. 8: Fluorescence micrographs showing tissue specificity in the binding of DSS peptides and variants. Adult human teeth were exposed to 12.5 μM 5(6)-carboxyfluorescein-labeled peptide without demineralization, washed extensively, and imaged by CLSM. For each section, multiple scans were collected and assembled in an automated mode to generate panels of images representing an area of 13×13 mm, sufficient in most cases to encompass the whole section. The peptides used for each section are labeled beneath each panel, and within each panel the tooth is oriented with the root toward the top of the image and the crown toward the bottom. Tissue layers are labeled as follows: RTD=Root Tip Dentin; CPD=Circumpulpal Dentin; MD=Mantle Dentin; P=Pulp Cavity Wall; DEJ=Dentin-Enamel Junction; E=Enamel; BE=Basal Enamel; CE=Cortical Enamel; CL=Carious Lesion; PB=Periodontal Bone.\nIn order to investigate the tissue specificity of DSS peptide binding to tooth tissue, sections of human teeth were exposed to DSS peptides and variants, then imaged by CLSM as described in Example 2. The peptides utilized for these experiments were 8DSS, 8ASS, 8DAA, 8NAA, 4DSS, 4ESS, 4NSS, 4DTT, 4ETT, 4NTT, and 6DSS. Sagittal sections of human teeth extracted during normal clinical practice were polished and then incubated for ten minutes in a solution of the appropriate 5(6) carboxyfluorescein-labeled peptide (12.5 μM) containing 10 mM NaCl and 50 mM HEPES, pH 7.0. Control samples were prepared without peptide. Samples were washed extensively after treatment and imaged by CLSM using blue laser illumination (λ=488 nm) and a FITC emission filter, with identical camera and microscope settings for each sample. For each section, multiple scans were collected and assembled in an automated mode to generate panels of images representing an area of 13×13 mm, sufficient in most cases to encompass the whole section. […] Significant binding was also seen to the edges of the pulp cavity."}, "[4]": {"tested_on": "mineralized mouse bone marrow nodules", "experiment": "Binding to mineralized mouse bone marrow nodules (fluorescence microscopy)", "assay_type": "cell-based", "details": "2.5 μM 5(6)-carboxyfluorescein-labeled peptide, three weeks", "procedure": "FIG. 2: Binding of 6DSS peptide to mineralized mouse bone marrow nodules (MBMNs). Mouse bone marrow cultures were grown to confluence, then treated for three weeks with 2.5 μM scrambled control peptide or 2.5 μM 6DSS. Cultures were imaged by fluorescence microscopy using a FITC filter set. A. Brightfield image of mineralized MBMNs from a culture treated with 6DSS. B. Fluorescence image of the field shown in (A). […] C. Brightfield image of mineralized MBMNs from a culture treated with scrambled control peptide. D. Fluorescence image of the field shown in (C), illustrating both the lack of binding of the control peptide to the MBMN's and the lack of autofluorescence within the sample. Mouse bone marrow cultures were grown to confluence in DMEM+10% FBS, then treated continuously for three weeks with either 2.5 μM 5(6)-carboxyfluorescein-labeled 6DSS or 2.5 μM 5(6)-carboxyfluorescein-labeled peptide #3-1 (scrambled control peptide, SEQ. ID NO. 24) in aMEM+10% FBS with 50 μg/mL ascorbic acid 4 mM β-glycerophosphate. Cultures were imaged by fluorescence microscopy using a FITC excitation/emission filter set, and both brightfield and fluorescence images were obtained."}, "[5]": {"experiment": "Binding of fluorescein-labeled peptides to hydroxyapatite nanocrystals (Langmuir isotherm)", "details": "fluorescein-labeled peptide 0-100 μM, 0.3 mg hydroxyapatite, ten minutes, Langmuir fit", "procedure": "as §1\nFour DSS peptides containing two (2DSS, SEQ ID NO:12), four (4DSS, SEQ ID NO:13), six (6DSS, SEQ ID NO:14), or eight(8DSS, SEQ ID NO:15) Asp-Ser-Ser (DSS) repeats were generated. Peptides were labeled with fluorescein, and various concentrations of the labeled peptides (0-100 μM) were mixed with a fixed amount (0.3 mg) of hydroxyapatite nanocrystals having a specific surface area of 100 m^2/g (Berkeley Advanced Biomaterials, Inc.). Samples were incubated for ten minutes, followed by removal of the hydroxyapatite by centrifugation. The amount of peptide in the mixture was measured both before and after hydroxyapatite removal by spectroscopic absorbance at 480 nm (the peak absorbance of the fluorescein label). The amount of peptide bound was calculated by comparing the ratio of the final (Af) and initial (Ai) absorbances to the initial concentration (P0) [Pbound=[…]]. Plots were generated illustrating the amount of peptide bound per m^2 of hydroxyapatite surface area versus concentration of unbound peptide at equilibrium. The resulting isotherms were fit to the Langmuir isotherm (x/m=(KANMaxCeq)/(1+KACeq)) (Calis 1995), which describes the binding activity of a molecule in terms of a combination of binding affinity (KA) and avidity (NMax). KA represents the affinity constant of the peptide for the hydroxyapatite surface. In this equation, x/m represents the molar amount of peptide bound per unit of hydroxyapatite surface area, NMax represents the maximum surface concentration (mol/m^2), and Ceq represents the molar concentration of unbound peptide at equilibrium. The Langmuir isotherm describes the binding of molecules to surfaces with the conditions that 1) all binding sites have the same affinity for the peptide, and 2) the peptide will form a monolayer on the surface but cannot accumulate to higher levels. The excellent fit of the Langmuir isotherm to the experimental data validates these conditions, and these affinity constants were used for comparisons between peptides."}, "[6]": {"tested_on": "Streptococcus mutans strain UA159", "assay_type": "cell-based", "description": "In order to determine the suitability of DSS peptides to serve as targeting moieties to deliver therapeutic compounds to mineralized surfaces, peptides were synthesized containing an N-terminal (DSS)4, (DSS)5, or (DSS)6 peptide, a triglycine (GGG) linker, and a 2c-4 antimicrobial peptide (SEQ ID NO:26) (J. He, unpublished). The sequences of these fusion proteins are set forth in SEQ ID NOs:27-29, respectively. The antimicrobial activity of these peptides against anaerobic planktonic bacteria was determined by a modification of a previously described assay (Qi 2005). Briefly, Streptococcus mutans strain UA159 cells were diluted to ˜1×10^5 cfu/mL in Todd-Hewitt (TH) broth medium and mixed with either suspended hydroxyapatite nanocrystals (Berkeley Advanced Biomaterials, Inc., 0.03% w/v) or, for control samples, an equivalent volume of deionized water. Aliquots were transferred into 96-well plates (Fisher). Serial dilutions of the peptides were then made and added to the bacteria. […] Nonetheless, some antimicrobial activity is retained by this peptide."}}, "note": "Read-outs that look alike come from different tables or passages of the source. No end group written: not given here.", "data": [{"substance": "6DSS: peptide containing six Asp-Ser-Ser (DSS) repeats, SEQ ID NO:14 (DSSDSSDSSDSSDSSDSS; calcium binding peptide containing six DSS repeats, 6DSS, (DSS)-6)", "values": [{"measurement": "Fluorescent staining of tooth surface", "setting": "[1]; 12.5 μM 5(6) carboxyfluorescein-labeled peptide, ten minutes", "value": "Intense fluorescent staining"}, {"measurement": "Location of peptide binding in tooth section", "setting": "[1]; 12.5 μM labeled peptide, dentin versus enamel", "value": "limited to the dentin"}, {"measurement": "Specificity of binding to carious lesions versus surrounding healthy enamel", "setting": "[2]", "value": "highly specific binding to carious lesions"}, {"measurement": "Strength of staining of carious lesions", "setting": "[2]", "value": "exceptionally strong staining of carious lesions"}, {"measurement": "Tissue binding pattern in healthy tooth section", "setting": "[3]", "value": "bound primarily to the mantle dentin"}, {"measurement": "Level of binding (staining) to tooth surfaces", "setting": "[3]; ten minutes, identical settings", "value": "greatest levels of staining"}, {"measurement": "Staining of mineralizing nodules", "setting": "[4]", "value": "Strong staining"}]}, {"substance": "8NAA: eight repeat peptide lacking hydroxyl groups at the second and third positions, SEQ. ID NO. 23 (NAANAANAANAANAANAANAANAA; variant DSS eight repeat peptide lacking hydroxyl group at seond and third positions, 8NAA)", "values": [{"measurement": "Specificity of binding to carious lesions versus surrounding healthy enamel", "setting": "[2]", "value": "highly specific binding to carious lesions"}, {"measurement": "Binding to carious lesion present in the sample", "setting": "[3]", "value": "did bind somewhat to a carious lesion"}, {"measurement": "Tissue binding pattern in healthy tooth section", "setting": "[3]", "value": "very little binding to any healthy tissue"}, {"measurement": "KA, affinity constant of the peptide for the hydroxyapatite surface", "setting": "[5]", "value": "20,000 M^−1"}]}, {"substance": "DSSDSSDSSDSSGGGRWRWRWF [4DSS-2c4]", "values": [{"measurement": "MIC", "setting": "[6]; planktonic S. mutans, with 0.03% (w/v) hydroxyapatite, approximately 24 hours", "value": "unaffected"}, {"measurement": "MIC", "setting": "[6]; strain UA159, 24 h", "value": 52.5, "unit": "µM"}]}, {"substance": "FHFHLHF [PL-135, reference compound]", "values": [{"measurement": "MIC", "setting": "[6]; strain UA159, 24 h", "value": 21, "unit": "µM"}]}, {"substance": "LKRFLKWFKRF [b-34, reference compound]", "values": [{"measurement": "MIC", "setting": "[6]; strain UA159, 24 h", "value": 5.6, "unit": "µM"}]}, {"substance": "RWRWRWF [2c-4, reference compound]", "values": [{"measurement": "MIC", "setting": "[6]; strain UA159, 24 h", "value": 2, "unit": "µM"}]}, {"substance": "peptide #3-1: scrambled control peptide, SEQ. ID NO. 24 (LIKHILHRL; scrambled control peptide #3-1) [reference compound]", "values": [{"measurement": "Staining of mineralizing nodules", "setting": "[4]", "value": "No staining"}]}]}
